A short description of data set [1]: Dissolution test in water (rotatory-basket method). The class given is physicochemical. The note with it: at 30 min, 37 °C, 100 rpm, 20 mg as Re in 200 mL. The method, then:
G-Re, G-Re-γ-CD physical mixtures, and the G-Re-γ-CD ICs (20 mg as Re) were inserted into a basket in a automatic dissolution testing system (RC806D, Tianjin Tianda Technology Co.,Ltd, Tianjin, China) containing 200 mL of water according to the dissolution method (Chp. 2020 Vol II Addium XC rotatory-basket method). The speed was set at 100 rpm, and the temperature was 37 ± 0.5 °C. Then an equal amount of solution (1 mL) needed to be taken at timepoints of 5, 15, 30, 45, and 60 min; at the same time, 1 mL solution should be replaced. As described below, the determination of G-Re concentration by 205 nm high-performance liquid chromatography was feasible. The G-Re concentration was detected with the same HPLC method applied in the phase solubility test.
(§1) The contents of G-Re from the dissolution sample and phase solubility sample were determined with the help of HPLC on the C18 column (Ascentis® Express, 10 cm × 2.1 mm, 2.6 μm, Sigma, USA), which was installed an Agilent system. This system consisted of a micro degasser, an auto plate sampler, a system binary pump, as well as a thermostatically controlled column apartment at 30 °C. Samples were separated under elution conditions at A (acetonitrile) and B (water) = 19: 81 (v/v). Then, the flow rate was set at 0.5 mL per minute and the injection volume at 5 μL, while the G-Re was detected spectrophotometrically at 205 nm.

Data set [2] in a line: Pharmacokinetic / bioavailability study after single oral administration, plasma LC-MS/MS. The note with it: rats, 100 mg/kg, mean ± SD. Format: in vivo, Sprague-Dawley rats. On the procedure: The animal studies carried out in this study strictly followed the instructions of the Animal Care and Use Committee of the Changchun university of Chinese medicine (Approval Number: 20190030). Adult male Sprague-Dawley rats (200-220 g; Yisi Experimental Animal Technology Co., Ltd., Changchun, China Approved number: SCXK (JI) 2018-0007) were used for the pharmacokinetic studies. All rats were not allowed to be fed for 24 h before the oral dosing and likewise after the drug administration. Besides, all of them needed to be brought up under a controlled temperature ranging from 20 to 24 °C with a 12-h light/dark cycle. G-Re powder and G-Re-γ-CD complex were suspended in double-distilled water prior to use at 100 mg/kg. […] The blood samples were centrifuged for 10 min at 4000 rpm to harvest the plasma sample (100 μL). Then, the G-Rf (10 μL, 10 ng/mL) was added into each tube rapidly to work as the inherent criterion. After that, a mixed 0.5 mL methanol-acetonitrile (60:40, v/v) should be added for precipitating proteins and extracting interested compounds. The samples were then rotated for 3 min and centrifuged at 15,000×grams for 10 min. By separating and evaporating, the supernatant was obtained on the condition that the nitrogen flow dried gently at 40 °C. Additionally, the residue was reconstituted by vortexing for 1 min with 0.2 mL methanol-water (80:20, v/v). Furthermore, the supernatant was transferred into auto-sampler vials using 5 μL aliquot to inject to the LC-MS/MS system. This method could be carried out by a combination of a Thermo TSQ Endura triple-quadrupole tandem mass spectrometer (Thermo Fisher Inc., Waltham, USA), which is a method named electrospray ionization (ESI), and an Ultimate 3000 LC system which is composed of a vacuum degasser, a quaternary pump, as well as an auto-sampler. Xcalibur 2.2 (SP1.48) software was used to acquire and analyze the data (Thermo Fisher Inc., Waltham, USA). After that, the separation of chemical materials was conducted by using the reverse-phase Accucore C18 analytical column (100 mm × 2.1 mm, 2.6 μm, Thermo Fisher Inc., Waltham, USA). This column was available for the linear gradient elution by using the mobile phase, which consisted of water embracing 0.1% formic acid (A) and acetonitrile (B). Steps are described as follows: 0 min (A 75%-B 25%)-5.0 min (A 70%-B 30%)-8 min (A 68%-B 32%)-9 min (A 64%-B 36%)-16 min (A 63%-B 37%)-16.8 min (A 52%-B 48%)-17.8 min (A 30%-B 70%)-18.8 min (A 10%-B 90%)-20.8 min (A 75%-B 25%)-25 min (A 75%-B 25%). The flow rate should be 0.2 mL per minute, and the volume of injection needed to be 5 μL. This process needed to be performed using the ESI negative ionization and multiple reactions monitoring (MRM) mode. Furthermore, the parameters of spray voltage were 3 kV, the parameters of capillary temperature was 325 °C, and the pressure of nitrogen sheath gas and auxiliary gas were 30 arb and 10 arb. The formic acid adduct [M+HCOO]- is the dominant parent ion of products. […] Finally, the ion transition situations for multiple reactions monitoring (MRM) were m/z 945.5→637.3 and 637.3→475.3 for G-Re, m/z 799.5→637.3 and 637.3→475.3 for IS. After oral administration, non-compartment approaches could be utilized [NT]-Re's t pharmacokinetic parameters. The part under the plasma concentration-time curve increasing from 0 to infinity (AUC0→∞) could be computed by the equation AUC0→∞ = AUCt + Ct/k. In this equation, Ct could be seen as the last concentration which could be quantized, and the calculation of k could be conducted by a straight-line's slope in plasma disappearance's terminal phase. […] Furthermore, with the help of linear trapezoidal approximation, it was easy to calculate the area below the plasma concentration-time curve increasing from 0 to the time of the last quantifiable concentration (AUCt). The calculation of bioavailability value for G-Re's oral doses needed to be conducted according to the AUC's dose-adjusted ratio. […]

Details of data set [3]: method as in PMID 22314249, PMID 25197955, PMID 19729261. As to conditions: after oral administration; cited from earlier work.
A short description of data set [4]: Phase solubility study of G-Re with CDs in water. Format: physicochemical. As to conditions: for stability constant Ks: G-Re with the CD, 1:1 stoichiometry; for △G: Gibbs free energy change of complexation with G-Re, ΔG = −RTln Ks; for Ks: apparent stability constant of G-Re with the CD, Ks=slope/S0(1-slope); for Ks / 1/Slope / Slope: water, 25 °C; for 1/Slope: phase solubility of G-Re; for Slope: slope of phase solubility curve of G-Re vs CD concentration. On the procedure:
Phase solubility studies were performed in water in accordance with the method formerly stated by Higuchi and Connors. In brief, an excess amount of G-Re was supplemented into 10 mL Eppendorf tubes with aqueous solution, including various concentrations of α-CD, β-CD, and γ-CD, respectively. Suspensions were vigorously shaken in 25 °C water bath for a week. After equilibrium was reached, the solutions were centrifuged for 5 min at 4000 rpm (1500 g). Meanwhile, a 0.22 μm membrane was used to further filter the supernatant. The filtrate was diluted and HPLC was employed to determine G-Re content.
The phase solubility curves were obtained with the regression of the concentrations of cyclodextrin (mol L^−1) as X-axis and the concentration of G-Re (mol L^−1) as Y-axis. The value of apparent stability constant (Ks) was defined by using the straight-line portion in the phase-solubility to the equation as follows: Ks=slope/S0(1-slope)
In this formula, R can be seen as the general gas constant, which equaled 8.314 J/mol K, and T can be considered as the experimental operating temperature.
as §1

[5] abbreviates: male, Sprague-Dawley, rat, plasma, n = 6.

The values that follow come from publication PMC8659091, “Preparation, Characterization, and Bioavailability of Host-Guest Inclusion Complex of Ginsenoside Re with Gamma-Cyclodextrin” (Molecules, 2021).

Where two headings read alike, the source gives them in different places.

In turn, `CC(C)=CCC[C@](C)(O[C@@H]1O[C@H](CO)[C@@H](O)[C@H](O)[C@H]1O)[C@H]1CC[C@]2(C)[C@@H]1[C@H](O)C[C@@H]1[C@@]3(C)CC[C@H](O)C(C)(C)[C@@H]3[C@@H](O[C@@H]3O[C@H](CO)[C@@H](O)[C@H](O)[C@H]3O[C@@H]3O[C@@H](C)[C@H](O)[C@@H](O)[C@H]3O)C[C@]12C` [G-Re, Ginsenoside Re] displayed a dissolution rate in data set [1] of 6.73%. Further, in data set [2] (setting [5]), the area under the curve AUC(0-inf) stood at 130 ± 54.1 ng·h/mL, the Cmax came out at 32.2 ± 8.15 ng/mL, the mean residence time MRT came out at 5.15 ± 0.968 h and the half-life was 12.2 ± 1.56 h. Besides, in data set [2] (setting [5]), the tmax was 1.02 ± 0.036 h. For the same molecule, the AUC(0-t) in data set [2] (male, Sprague-Dawley, rat, plasma, n = 6, called AUC0–t, read-out: AUC0–24h) came to 113 ± 44.6 ng·h/mL. For the same molecule, in data set [2] (n = 6), the CLt came out at 2.401 ± 0.52 L/h and the Vdss is reported as 13.691 ± 3.74 L/kg. In data set [3], the bioavailability entry was “low” and the tmax entry is listed as “short”.

Turning to `OC[C@H]1O[C@@H]2O[C@H]3[C@H](O)[C@@H](O)[C@@H](O[C@H]4[C@H](O)[C@@H](O)[C@@H](O[C@H]5[C@H](O)[C@@H](O)[C@@H](O[C@H]6[C@H](O)[C@@H](O)[C@@H](O[C@H]7[C@H](O)[C@@H](O)[C@@H](O[C@H]1[C@H](O)[C@H]2O)O[C@@H]7CO)O[C@@H]6CO)O[C@@H]5CO)O[C@@H]4CO)O[C@@H]3CO` [α-CD], in data set [4], the “stability constant Ks” value was 22 M⁻¹, the “△G” value is -1.831 kcal/mol, the Ks turned out to be 22 M⁻¹ and the 1/Slope turned out to be 116.28. In data set [4], this molecule yielded a Slope of 0.0086.

As to `OC[C@H]1O[C@@H]2O[C@H]3[C@H](O)[C@@H](O)[C@@H](O[C@H]4[C@H](O)[C@@H](O)[C@@H](O[C@H]5[C@H](O)[C@@H](O)[C@@H](O[C@H]6[C@H](O)[C@@H](O)[C@@H](O[C@H]7[C@H](O)[C@@H](O)[C@@H](O[C@H]8[C@H](O)[C@@H](O)[C@@H](O[C@H]1[C@H](O)[C@H]2O)O[C@@H]8CO)O[C@@H]7CO)O[C@@H]6CO)O[C@@H]5CO)O[C@@H]4CO)O[C@@H]3CO` [β-CD], in data set [4], the “stability constant Ks” value worked out at 612 M⁻¹, the “△G” value was -3.7976 kcal/mol, the Ks stood at 612 M⁻¹ and the 1/Slope came out at 5.16. The molecule also came in with a Slope in data set [4] of 0.1935.

Take `OC[C@H]1O[C@@H]2O[C@H]3[C@H](O)[C@@H](O)[C@@H](O[C@H]4[C@H](O)[C@@H](O)[C@@H](O[C@H]5[C@H](O)[C@@H](O)[C@@H](O[C@H]6[C@H](O)[C@@H](O)[C@@H](O[C@H]7[C@H](O)[C@@H](O)[C@@H](O[C@H]8[C@H](O)[C@@H](O)[C@@H](O[C@H]9[C@H](O)[C@@H](O)[C@@H](O[C@H]1[C@H](O)[C@H]2O)O[C@@H]9CO)O[C@@H]8CO)O[C@@H]7CO)O[C@@H]6CO)O[C@@H]5CO)O[C@@H]4CO)O[C@@H]3CO` [γ-CD]: the “inclusion constant relative to that of α-CD” value in data set [4] (G-Re as guest) stood at 655 times. Besides, in data set [4], the “△G” value was -5.673 kcal/mol, the Ks was found to be 14410 M⁻¹, the 1/Slope was determined as 1.18 and the Slope is reported as 0.8494.

In general, AUC(0-inf) refers to total exposure, with the tail of the curve extrapolated. Usually Cmax stands for the maximum level reached in the sampled fluid or tissue. As usually defined, the MRT is a mean duration of stay, worked out from the concentration-time curve. As usually defined, the half-life is how long it takes for the measured level to halve.
